# Laboratory results published in patent US20160031868A1, “BENZIMIDAZOLONE DERIVATIVES AS BROMODOMAIN INHIBITORS” (GILEAD SCIENCES, INC., priority 2013, published 2016).
# Read-outs that look alike come from different tables or passages of the source.
# How the values were obtained:
# BRD4-2 [1] = biological target: T1, BRD4-2 (Homo sapiens, UniProt O60885); test: Biochemical HTRF (TR-FRET) assay: BRD4-2 binding to acetylated histone H4 peptide; conditions: 200 nM H4 peptide, 120 nM BRD4-2, 60 min at 25 °C; geometric mean; read-out: IC50 HTBS BRD4-2 HTRF
# T1 construct: made in house; host or cells: Escherichia coli
# Procedure: (§1) Binding of the two tandem bromodomains, BRD4 I and BRD4—2, to an acetylated histone H4 peptide were measured using a homogeneous time resolved fluorescence resonance energy transfer (TR-FRET) assay. The synthetic peptide containing amino acids 1-18 of histone H4 was acetylated at lysine 5, 8, 12, 16 and conjugated to biotin ([…]-GSGSK-biotin) was purchased from Millipore. BRD4_I and BRD4—2 were expressed and purified from Escherichia coli as N-terminal His6-tagged proteins. An XL665 labeled anti-His antibody (Cisbio) was used to specifically bind BRD4 and a cryptate labeled streptavidin protein was used because it specifically recognized the biotinylated H4 peptide. […] Assays were performed in 50 mM Hepes (pH 7.5), 150 mM NaCl, 0.1 mg/ml BSA, 0.01% (v/v) Brij, 0.5% (v/v) DMSO and 200 nM H4 peptide at the following concentrations for each BRD4 isoform: 60 nM BRD4—1 and 120 nM BRD4—2. After an assay reaction time of 60 minutes at 25° C., binding was measured with 2 nM cryptate labeled streptavidin and 10 nM anti-His-XL665 antibody. TR-FRET signal was detected on an Envision plate reader (Ex: 320 nm; Em: 615/665 nm; 100 μs delay and 200 μs read window). Data were normalized based on a positive (2 μM I-BET) and negative (DMSO) controls and IC50 values were calculated from the fit of the dose-response curves to a four-parameter equation. All IC50 values represent geometric mean values of a minimum of four determinations. These assays generally produced results within 3-fold of the reported mean.
# BRD4-1 [2] = biological target: T2, BRD4-1 (Homo sapiens, UniProt O60885); test: Biochemical HTRF (TR-FRET) assay: BRD4-1 binding to acetylated histone H4 peptide; conditions: 200 nM H4 peptide, 60 nM BRD4-1, 60 min at 25 °C; geometric mean; read-out: IC50 HTBS BRD4-1 HTRF
# T2 construct: made in house; host or cells: Escherichia coli
# Procedure: as §1
# [3] = MT-4 proliferation assay in 384-well format (Cell Titer Glo); assay type: cell-based, human; conditions: human, MT-4 cells, read-out: CC50 MT4 384
# Procedure: Compounds were tested in a standardized high-throughput 384-well assay format. Each compound was serially diluted 3-fold in 100% DMSO in polypropylene 384-well plates using a Biomek FX Workstation, and 0.4 μL compound added to an assay plate containing 40 μL RPMI media. Compounds were arranged in a horizontal pattern, with 10 concentrations per compound, and 8 compounds added per plate. Due to low DMSO tolerability, the final DMSO concentration never exceeded 0.5% (v/v). Each assay plate contained 10 μM Puromycin and 0.5% DMSO in RPMI-1640 as positive and negative controls respectively. MT-4 cells (HTLV-1 transformed, human T lymphoblastoid cells, NIH Aids Reagent program) were added in volumes of 35 μL per well and 2,000 cells per well using a Biotek uFlow Workstation (Biotek, Winooski, Vt.), and the plates subsequently incubated for 5 days at 37° C. in an incubator set at 5% CO2 and 90% humidity.
# After 5 days, 22 μL Cell Titer Glo (Promega) was added to the assay plates with a Biotek uFlow Workstation. Plates were subsequently placed on a Perkin Elmer Envision Plate Reader for 5 minutes before the luminescence signal was read. CC50 values were calculated from the compound concentration that caused a 50% decrease in luminescence signal, a measure of toxicity, and calculated by non-linear regression using Pipeline Pilot software (Accelrys, San Diego, Calif.).
# BRD4-1 [4] = biological target: T2, BRD4-1; test: Biochemical ALPHA assay: binding of BRD4_1 to acetylated histone H4 peptide; conditions: 200 nM H4 peptide, 15 nM BRD4_1, 60 min at 25 °C; geometric mean of min. four determinations
# Procedure: Binding of the bromodomain BRD4_I to an acetylated histone H4 peptide was measured using a bead based Amplified Luminescent Proximity Homogeneous Assay (ALPHA). The synthetic peptide containing amino acids 1-18 of histone H4 was acetylated at lysine 5, 8, 12, 16 and conjugated to biotin ([…]-GSGSK-biotin) was purchased from Millipore. BRD4_I was expressed and purified from Escherichia coli as an N-terminal Hiss-tagged protein. Nickel-Chelate ALPHA acceptor beads (Perkin Elmer) were used to specifically bind BRD4—1 and ALPHA streptavidin donor beads (Perkin Elmer) were used because they specifically recognized the biotinylated H4 peptide. […] Assays were performed in 50 mM Hepes (pH 7.5), 150 mM NaCl, 0.1 mg/ml BSA, 0.01% (v/v) Brij, 0.5% (v/v) DMSO, 200 nM H4 peptide and 15 nM of BRD4—1 protein. After an assay reaction time of 60 minutes at 25° C., binding was measured with 20 µg/ml streptavidin donor beads and 20 μg/ml nickel-chelate acceptor beads. ALPHA signal was detected on an Envision plate reader ([…]; Em: 570 nm; Ex time: 180 ms). Data were normalized based on a positive (2 μM I-BET) and negative (DMSO) controls and IC50 values were calculated from the fit of the dose-response curves to a four-parameter equation. All IC50 values represent geometric mean values of a minimum of four determinations. These assays generally produced results within 3-fold of the reported mean.
# [5] = tested on: c-Myc produced in MM1S cells; test: c-Myc down regulation assay (MSD ELISA) in MM1S cells; assay type: cell-based; conditions: Homo sapiens, MM1.S, 24 hrs incubation, geometric mean, read-out: cMYC EC50
# Procedure: An enzyme linked immunosorbent assay using the Meso Scale Diagnostic (MSD) technology was used to detect levels of c-Myc produced in MM1S cells (ATCC). MM1S cells were cultured in RPMI-1640 media (Corning), supplemented with 10% FBS (Hyclone), 1% penicillin-streptomycin (Cellgro), 2-mercaptoethanol (Gibco) and seeded onto 384-tissue culture treated filter binding plates (Millipore) at a density of 40K cells/well containing titrations of small molecule inhibitors or DMSO (0.4%) in a volume of 100 μl of media. After an incubation time of 24 hrs, cells were lysed (1× lysis buffer (Thermo) supplemented with protease and phosphatase inhibitor cocktail (Thermo)) and the plates centrifuged (1000 rpm, 1 min) to capture c-Myc on MSD plates coated with a monoclonal c-Myc antibody (Origene). Assay wells were washed (3× Invitrogen wash buffer) and probed with a polyclonal c-Myc antibody (Abcam) and MSD detection antibody solution in order to detect levels of c-Myc on the MSD platform. c-Myc capture was reported in pg/ml based on a standard curve using recombinant c-Myc protein (Prosci). EC50 values were calculated from the fit of the dose-response curves to a four-parameter equation. All EC50 values represent geometric mean values of a minimum of four determinations. These assays generally produced results within 3-fold of the reported mean.
# BRD4-2 [6] = biological target: T1, BRD4-2; test: BRD4-2 Ligand KI assay (TR-FRET displacement of Cy5 labeled probe); assay type: binding
# Procedure: (§2) BRD4-I and BRD4-2 were expressed and purified from Escherichia coli as N-terminal His6-tagged proteins. A Eu-cryptate labeled anti-His antibody (Perkin Elmer) was used to specifically bind BRD4. […] Assays were performed in 50 mM Hepes (pH 7.5), 150 mM NaCl, 0.1 mg/ml BSA, 0.01% (v/v) Brij, 0.5% (v/v) DMSO and 10 nM labeled ligand at the following concentrations for each BRD4 isoform: 2 nM BRD4-1 and 0.5 nM BRD4-2. After an assay reaction time of 60 minutes at 25° C., binding was measured with 2 nM Eu-cryptate labeled anti-His antibody. TR-FRET signal was detected on an Envision plate reader (Ex: 320 nm; Em: 615/665 nm; 100 μs delay and 200 μs read window). Data were normalized based on a positive (2 μM I-BET) and negative (DMSO) controls and IC50 values were calculated from the fit of the dose-response curves to a four-parameter equation. All IC50 values represent geometric mean values of a minimum of four determinations. The IC50 values were converted to Ki values (dissociation constant for BRD4-inhibitor complex) using the Cheng and Prusoff equation for a competitive inhibitor mode of action.
# BRD4-1 [7] = biological target: T2, BRD4-1; test: BRD4-1 Ligand KI assay (TR-FRET displacement of Cy5 labeled probe); assay type: binding
# Procedure: Binding of the two tandem bromodomains, BRD4-I and BRD4-2, to a Cy5 labeled probe/ligand (Compound 201-A) were measured using a homogeneous time resolved fluorescence resonance energy transfer (TR-FRET) assay.
# as §2, with “The labeled ligand specifically binds BRD4-1 and BRD4-2 and can be displaced by a small molecule inhibitor that shares a similar or overlapping binding site. BRD4-I” for “BRD4-I”, “action. These assays generally produced results within 3-fold of the reported mean.” for “action.”
# [8] = Table 1, 50% decrease in luminescence signal
# [9] = 10 nM labeled ligand, 0.5 nM BRD4-2, Ki from IC50 by Cheng and Prusoff, read-out: BRD4-2 Ligand K2
# [10] = 10 nM labeled ligand, 2 nM BRD4-1, Ki from IC50 by Cheng and Prusoff, read-out: BRD4-1 Ligand K1
# [11] = Table 2, 50% decrease in luminescence signal
SMILES,IC50 (BRD4-2 [1]) [nM],IC50 (BRD4-1 [2]) [nM],"CC50 at 5 days [3, 8] [nM]",IC50 (BRD4-1 [4]) [nM],EC50 [5] [nM],Ki (BRD4-2 [6]; [9]) [nM],Ki (BRD4-1 [7]; [10]) [nM],"CC50 at 5 days [3, 11] [nM]",Ki (BRD4-2 [6]) [nM],Ki (BRD4-1 [7]) [nM]
"Cc1noc(C)c1-c1cc(-c2cccc3c2CCC(=O)N3C)c2[nH]c(=O)[nH]c2c1 [Example 6, 5-(6-(3,5-dimethylisoxazol-4-yl)-2-oxo-2,3-dihydro-1H-benzo[d]imidazol-4-yl)-1-methyl-3,4-dihydroquinolin-2(1H)-one]",108,132,53.9,46.8,,,,,,
Cc1cnn(C)c1-c1cc(-c2c(C)noc2C)cc2[nH]c(=O)[nH]c12 [Example 5],144,350,233,234,,,,,,
"Cc1noc(C)c1-c1cc(-c2cccnc2-c2ccccc2)c2oc(=O)[nH]c2c1 [Example 12, 5-(3,5-dimethylisoxazol-4-yl)-7-(2-phenylpyridin-3-yl)benzo[d]oxazol-2(3H)-one]",314,316,761,233,,,,,,
"Cc1noc(C)c1-c1cc(S(=O)(=O)NC2CCCC2)c2[nH]c(=O)[nH]c2c1 [Example 1, N-cyclopentyl-6-(3,5-dimethylisoxazol-4-yl)-2-oxo-2,3-dihydro-1H-benzo[d]imidazole-4-sulfonamide]",1070,1410,1120,,,,,,,
"Cc1noc(C)c1-c1cc(C(O)(c2ccccc2)c2ccc3ccc(F)cc3n2)c2[nH]c(=O)[nH]c2c1 (centres unmarked) [Example 33, 6-(3,5-dimethylisoxazol-4-yl)-4-((7-fluoroquinolin-2-yl)(hydroxy)(phenyl)methyl)-1H-benzo[d]imidazol-2(3H)-one]",,,,,176,5.3,14.1,29.1,,
Cc1noc(C)c1-c1cc(C(O)(c2ccccn2)c2ccccn2)c2[nH]c(=O)[nH]c2c1F [Example 169],,,,,128,33.5,62,41.4,,
"Cc1noc(C)c1-c1cc(C(O)(c2ccc(F)cn2)c2cc(F)ccc2F)c2[nH]c(=O)[nH]c2c1 (centres unmarked) [Example 41, 4-((2,5-difluorophenyl)(5-fluoropyridin-2-yl)(hydroxy)methyl)-6-(3,5-dimethylisoxazol-4-yl)-1H-benzo[d]imidazol-2(3H)-one]",,,,,104,5,12.8,47.3,,
"Cc1noc(C)c1-c1cc(C(O)(c2ccc(Cl)cn2)c2ccc(Cl)cn2)c2[nH]c(=O)[nH]c2c1 [Example 55, 4-(bis(5-chloropyridin-2-yl)(hydroxy)methyl)-6-(3,5-dimethylisoxazol-4-yl)-1H-benzo[d]imidazol-2(3H)-one]",,,,,141,18.2,14.5,41,,
"Cc1noc(C)c1-c1cc(-c2c(C)noc2C)c2[nH]c(=O)[nH]c2c1 [Example 3, 4,6-bis(3,5-dimethylisoxazol-4-yl)-1H-benzo[d]imidazol-2(3H)-one]",,295,196,119,,,,,,
"Cc1noc(C)c1-c1cc(C(O)(c2ccccn2)c2ccccn2)c2[nH]c(=O)[nH]c2c1 [Example 133, 6-(3,5-dimethylisoxazol-4-yl)-4-(hydroxydi(pyridin-2-yl)methyl)-1H-benzo[d]imidazol-2(3H)-one]",,,,,44.3,,,25.5,15.8,40.3
